Laboratory results as given in the supplement of paper PMC4862054.

Experiments:
Conditions in all cases: incubation time: 72 h
[1] = system: SK-BR-3; test: normalised response (% of control), CellTiter-Glo; higher = more viable cells (100 = DMSO, 0 = benzethonium chloride kill control)
Method: (§1)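 DSRT, 72 h incubation, CellTox Green / CellTiter-Glo readout. Signal is normalised to DMSO and benzethonium chloride controls. Value is the normalised response at dose 3.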

[2] = system: CAL-148; test: as above
Method: as §1

[3] = system: CAL-85-1; test: as above
Method: as §1

[4] = system: HDQ-P1; test: as above
Method: as §1

[5] = system: BT-549; test: as above
Method: as §1

[6] = system: CAL-120; test: as above
Method: as §1

[7] = system: HCC1937; test: as above
Method: as §1

[8] = system: MDA-MB-231; test: as above
Method: as §1

[9] = system: DU-4475; test: as above
Method: as §1

[10] = system: MDA-MB-436; test: as above
Method: as §1

[11] = system: MCF-10A; test: as above
Method: as §1

[12] = system: HCC1599; test: as above
Method: as §1

[13] = system: MDA-MB-453; test: as above
Method: as §1

[14] = system: HCC1143; test: as above
Method: as §1

[15] = system: BT-474; test: as above
Method: as §1

[16] = system: MDA-MB-468; test: normalised response (% of control), CellTox Green; higher = less cell death (100 = DMSO, 0 = benzethonium chloride kill control)
Method in brief: (§2)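 Breast cancer cell lines (20 µl suspension) were seeded into 384-well plates holding compound at 5 concentrations in 10-fold steps over a compound-specific 10,000-fold range, then incubated 72 h. CellTox Green fluorescence (485/520 nm) was read first, then CellTiter-Glo luminescence after 10 min at room temperature. Each plate was normalised to 0.1 % DMSO (100) and a positive kill control (0). Each value is the normalised signal at a single concentration of the series.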

[17] = system: CAL-148; test: as above
Method in brief: as §2

[18] = system: Hs578T; test: as above
Method in brief: as §2

[19] = system: CAL-85-1; test: as above
Method in brief: as §2

[20] = system: HDQ-P1; test: as above
Method in brief: as §2

[21] = system: BT-549; test: as above
Method in brief: as §2

[22] = system: CAL-51; test: as above
Method in brief: as §2

[23] = system: CAL-120; test: as above
Method in brief: as §2

[24] = system: MDA-MB-231; test: as above
Method in brief: as §2

[25] = system: DU-4475; test: as above
Method in brief: as §2

[26] = system: MDA-MB-436; test: as above
Method in brief: as §2

[27] = system: MCF-10A; test: as above
Method in brief: as §2

[28] = system: HCC1599; test: as above
Method in brief: as §2

[29] = system: MDA-MB-453; test: as above
Method in brief: as §2

[30] = system: HCC1143; test: as above
Method in brief: as §2

[31] = system: MFM-223; test: as above
Method in brief: as §2

[32] = system: BT-474; test: as above
Method in brief: as §2

[33] = system: HCC1937; test: as above
Method in brief: as §2

[34] = system: SK-BR-3; test: normalised response (% of control), CellTiter-Glo; higher = more viable cells (100 = DMSO, 0 = benzethonium chloride kill control); remark: listed apart in the source
Method in brief: as §2

[35] = system: MDA-MB-468; test: as above
Method in brief: as §2

[36] = system: CAL-148; test: as above; remark: listed apart in the source
Method in brief: as §2

[37] = system: Hs578T; test: as above
Method in brief: as §2

[38] = system: CAL-85-1; test: as above; remark: listed apart in the source
Method in brief: as §2

[39] = system: HDQ-P1; test: as above; remark: listed apart in the source
Method in brief: as §2

[40] = system: BT-549; test: as above; remark: listed apart in the source
Method in brief: as §2

[41] = system: CAL-51; test: as above
Method in brief: as §2

[42] = system: CAL-120; test: as above; remark: listed apart in the source
Method in brief: as §2

[43] = system: HCC1937; test: as above; remark: listed apart in the source
Method in brief: as §2

[44] = system: MDA-MB-231; test: as above; remark: listed apart in the source
Method in brief: as §2

[45] = system: DU-4475; test: as above; remark: listed apart in the source
Method in brief: as §2

[46] = system: MDA-MB-436; test: as above; remark: listed apart in the source
Method in brief: as §2

[47] = system: MCF-10A; test: as above; remark: listed apart in the source
Method in brief: as §2

[48] = system: HCC1599; test: as above; remark: listed apart in the source
Method in brief: as §2

[49] = system: MDA-MB-453; test: as above; remark: listed apart in the source
Method in brief: as §2

[50] = system: HCC1143; test: as above; remark: listed apart in the source
Method in brief: as §2

[51] = system: MFM-223; test: as above
Method in brief: as §2

[52] = system: BT-474; test: as above; remark: listed apart in the source
Method in brief: as §2

Row | SMILES | normalised response [16] [%] | normalised response [17] [%] | normalised response [18] [%] | normalised response [19] [%] | normalised response [20] [%] | normalised response [21] [%] | normalised response [22] [%] | normalised response [23] [%] | normalised response [24] [%] | normalised response [25] [%] | normalised response [26] [%] | normalised response [27] [%] | normalised response [28] [%] | normalised response [29] [%] | normalised response [30] [%] | normalised response [31] [%] | normalised response [32] [%] | normalised response [33] [%] | normalised response [34] [%] | normalised response [35] [%] | also measured
1 | CS(=O)(=O)N1CCN(Cc2cc3nc(-c4cccc5[nH]ncc45)nc(N4CCOCC4)c3s2)CC1 [Pictilisib] (100 nM) | 143 | 92.1 | 109 | 107 | 107 | 101 | 103 | 102 | 92.3 | 101 | 107 | 106 | 108 | 104 | 110 | 105 | 98.8 | – | – | – | normalised response [1]: 74.1%; normalised response [2]: 98.4%; normalised response [3]: 106%; normalised response [4]: 82.4%; normalised response [5]: 86.7%; normalised response [6]: 89.6%; normalised response [7]: 94.7%; normalised response [8]: 86.2%; normalised response [9]: 92%; normalised response [10]: 92%; normalised response [11]: 84.8%; normalised response [12]: 93.6%; normalised response [13]: 88.5%; normalised response [14]: 91.7%; normalised response [15]: 86.9%
2 | O=S(=O)(c1cccc2cnccc12)N1CCCNCC1 [Fasudil] (5000 nM) | 70.9 | 98.2 | 66 | 102 | 75.7 | 99.9 | 110 | 94.5 | 97.6 | 99 | 95.3 | 83.4 | 103 | 100 | 98.9 | 94.8 | 97.1 | 109 | 107 | 105 | normalised response [36]: 97.1%; normalised response [37]: 99.7%; normalised response [38]: 122%; normalised response [39]: 101%; normalised response [40]: 95.9%; normalised response [41]: 94.9%; normalised response [42]: 89.4%; normalised response [43]: 105%; normalised response [44]: 106%; normalised response [45]: 96.8%; normalised response [46]: 113%; normalised response [47]: 89%; normalised response [48]: 101%; normalised response [49]: 95.7%; normalised response [50]: 96.3%; normalised response [51]: 102%; normalised response [52]: 96.5%
3 | Cn1cc(CNCC2CCN(c3ncc(C(=O)NO)cn3)CC2)c2ccccc21 [Quisinostat] (100 nM) | 43.3 | 23.7 | 38.8 | -5.42 | -19.4 | 92.3 | 58.5 | 34.5 | 29.6 | 82.1 | 87.5 | 97.8 | 86.8 | 89 | 86.2 | 72.8 | 45.6 | 80 | 14.9 | 34.5 | normalised response [36]: 8.89%; normalised response [37]: 37.2%; normalised response [38]: 29.5%; normalised response [39]: 58.4%; normalised response [40]: 46.1%; normalised response [41]: 40.5%; normalised response [42]: 44.5%; normalised response [43]: 64.7%; normalised response [44]: 30%; normalised response [45]: 23.2%; normalised response [46]: 55.3%; normalised response [47]: 51.6%; normalised response [48]: 42.1%; normalised response [49]: 2.02%; normalised response [50]: 25.4%; normalised response [51]: 52.5%; normalised response [52]: 25.3%
4 | Cc1c(Cn2c(C)nc3c(C(=O)O)cc(N4CCOCC4)cc32)cccc1C(F)(F)F (1000 nM) | 125 | 107 | 105 | 104 | 115 | 111 | 100 | 109 | 107 | 111 | 107 | 110 | 92.3 | 112 | 119 | 105 | 102 | 106 | 106 | 80.9 | normalised response [36]: 101%; normalised response [37]: 103%; normalised response [38]: 98.1%; normalised response [39]: 105%; normalised response [40]: 75.5%; normalised response [41]: 74.1%; normalised response [42]: 99.8%; normalised response [43]: 94.4%; normalised response [44]: 100%; normalised response [45]: 95.1%; normalised response [46]: 99.5%; normalised response [47]: 115%; normalised response [48]: 117%; normalised response [49]: 93.1%; normalised response [50]: 103%; normalised response [51]: 104%; normalised response [52]: 96.2%
